This assay has as its target T1, human APJ receptor (Homo sapiens, UniProt P35414).
T1 construct: expressed in transfected cells
T1 sequence (P35414 1-380): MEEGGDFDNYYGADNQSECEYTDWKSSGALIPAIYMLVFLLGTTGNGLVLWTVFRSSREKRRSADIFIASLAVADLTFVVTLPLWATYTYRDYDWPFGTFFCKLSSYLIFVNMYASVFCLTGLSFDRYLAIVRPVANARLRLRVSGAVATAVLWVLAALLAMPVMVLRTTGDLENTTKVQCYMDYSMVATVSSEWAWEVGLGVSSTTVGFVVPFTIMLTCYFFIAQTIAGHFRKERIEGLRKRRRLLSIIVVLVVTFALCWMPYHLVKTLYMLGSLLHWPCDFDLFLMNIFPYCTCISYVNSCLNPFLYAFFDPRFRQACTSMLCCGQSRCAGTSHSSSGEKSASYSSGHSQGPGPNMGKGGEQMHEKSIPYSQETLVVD
Kind of assay: Intracellular cAMP accumulation assay (APJ hcAMP, HTRF). Type of assay: cell-based. The conditions noted are these: HEK293 cells stably expressing human APJ receptor. In a few lines:
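HEK293 cells stably expressing human APJ, 5,000/well, incubated 30 min at room temperature with compound plus […] and 2 μM forskolin. cAMP read by HTRF against a cAMP standard curve; EC50 from variable-slope sigmoidal fit, Ymax as % of (Pyr1)apelin-13 inhibition.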

[1] abbreviates: Table 1, inhibition of forskolin-mediated cAMP production, read-out: APJ hcAMP EC50.
Where [2] appears, read: Table 2, read-out: APJ cAMP Human EC50.

The structures appear in SMILES notation. Read-outs that look alike come from different tables or passages of the source. A value given as a limit tells only on which side of the number the result lay.

Take `CCC[C@@H](NC(=O)c1ccc(-c2cc(Cl)ccc2-c2nc3cc(O)ccc3[nH]2)c(C(=O)O)c1)c1ccccc1` [Example 3, (R)-5′-Chloro-2′-(5-hydroxy-1H-benzo[d]imidazol-2-yl)-4-((1-phenylbutyl)carbamoyl)-[1,1′-biphenyl]-2-carboxylic acid]: the EC50 was less than 10 nM under setting [1] and less than 10 nM under setting [2].

For `CCC[C@@H](NC(=O)c1ccc(-c2cc(Cl)ccc2-c2ncc(-c3ccccc3)[nH]2)c(C(=O)O)c1)c1ccccc1` [Example 4, (R)-5′-Chloro-2′-(4-phenyl-1H-imidazol-2-yl)-4-((1-phenylbutyl)carbamoyl)-[1,1′-biphenyl]-2-carboxylic acid], the 50% effective concentration (EC50) is, setting by setting: under setting [1], less than 10 nM; under setting [2], less than 10 nM.

As to `O=C(N[C@H](CN1CCOCC1)c1ccccc1)c1ccc(-c2cc(Cl)ccc2-c2nc3ccccc3[nH]2)c(C(=O)O)c1` [Example 5, (S)-2′-(1H-benzo[d]imidazol-2-yl)-5′-chloro-4-((2-morpholino-1-phenylethyl)carbamoyl)-[1,1′-biphenyl]-2-carboxylic acid], the EC50 runs as follows: under setting [1], 10 to 100 nM; under setting [2], 10 to 100 nM.

Turning to `CCC[C@@H](NC(=O)c1ccc(-c2cc(Cl)ccc2-c2nc3ccccc3[nH]2)c(C(=O)NC#N)c1)c1ccccc1` [Example 6, (R)-2′-(1H-benzo[d]imidazol-2-yl)-5′-chloro-N2-cyano-N4-(1-phenylbutyl)-[1,1′-biphenyl]-2,4-dicarboxamide], the 50% effective concentration (EC50) by setting is: under setting [1], 101 to 500 nM; under setting [2], 101 to 500 nM.

Take `CCC[C@@H](NC(=O)c1ccc(-c2cc(Cl)ccc2-c2nc3ccccc3[nH]2)c(CO)c1)c1ccccc1` [Example 7, (R)-2′-(1H-benzo[d]imidazol-2-yl)-5′-chloro-2-(hydroxymethyl)-N-(1-phenylbutyl)-[1,1′-biphenyl]-4-carboxamide]: the EC50 was in the range of 10 to 100 nM under setting [1] and 10 to 100 nM under setting [2].

For the compound `CCC[C@@H](NC(=O)c1ccc(-c2cc(Cl)ccc2-c2nc3cc(OC)ccc3[nH]2)c(-c2nc(=O)o[nH]2)c1)c1ccccc1` [Example 8, (R)-5′-chloro-2′-(5-methoxy-1H-benzo[d]imidazol-2-yl)-2-(5-oxo-2,5-dihydro-1,2,4-oxadiazol-3-yl)-N-(1-phenylbutyl)-[1,1′-biphenyl]-4-carboxamide], the concentration for a half-maximal effect (EC50) lay within 10 to 100 nM under setting [1] and 10 to 100 nM under setting [2].

`CCC[C@@H](NC(=O)c1ccc(-c2cc(Cl)ccc2-c2nc3ccccc3[nH]2)c(-c2n[nH]c(=O)o2)c1)c1ccccc1` [Example 9]: the concentration giving a half-maximal response (EC50) is, setting by setting: under setting [1], 10 to 100 nM; under setting [2], 10 to 100 nM.

Regarding `CCC[C@@H](NC(=O)c1ccc(-c2cc(Cl)ccc2-c2nc3cc(OC)ccc3[nH]2)c(-c2nc(=S)o[nH]2)c1)c1ccccc1` [Example 10, (R)-5′-chloro-2′-(5-methoxy-1H-benzo[d]imidazol-2-yl)-N-(1-phenylbutyl)-2-(5-thioxo-2,5-dihydro-1,2,4-oxadiazol-3-yl)-[1,1′-biphenyl]-4-carboxamide], the EC50 under setting [1] is 101 to 500 nM and the EC50 under setting [2] lay in the range of 101 to 500 nM.

On to `CCC[C@@H](NC(=O)c1cc(C(=O)O)c(-c2cc(Cl)ccc2-c2nc3ccccc3[nH]2)cc1C)c1ccccc1` [Example 11, (R)-2′-(1H-benzo[d]imidazol-2-yl)-5′-chloro-5-methyl-4-((1-phenylbutyl)carbamoyl)-[1,1′-biphenyl]-2-carboxylic acid], for which the EC50 is, setting by setting: under setting [1], less than 10 nM; under setting [2], less than 10 nM.

Regarding `COC[C@@H](NC(=O)c1ccc(-c2cc(Cl)ccc2-c2nc3cc(OC)ccc3[nH]2)c(C(=O)O)c1)c1ccccc1` [Example 12, 5′-chloro-4-{[(1S)-2-methoxy-1-phenylethyl]carbamoyl}-2′-(5-methoxy-1H-1,3-benzodiazol-2-yl)-[1,1′ biphenyl]-2-carboxylic acid], the concentration for a half-maximal effect (EC50) by setting is: under setting [1], less than 10 nM; under setting [2], less than 10 nM.

Turning to `CCC[C@@H](NC(=O)c1ccc(-c2cc(Cl)ccc2-c2nc3cc(Br)ccc3[nH]2)c(C(=O)O)c1)c1ccccc1` [Example 13, 2′-(5-bromo-1H-1,3-benzodiazol-2-yl)-5′-chloro-4-{[(1R)-1-phenylbutyl]carbamoyl}-[1,1′-biphenyl]-2-carboxylic acid], the concentration for a half-maximal effect (EC50) under setting [1] was less than 10 nM and the EC50 under setting [2] is less than 10 nM.

Consider `CCC[C@@H](NC(=O)c1ccc(-c2cc(Cl)ccc2-c2nc3cc(C)ccc3[nH]2)c(C(=O)O)c1)c1ccccc1` [Example 14, 5′-chloro-2′-(5-methyl-1H-1,3-benzodiazol-2-yl)-4-{[(1R)-1-phenylbutyl]carbamoyl}-[1,1′-biphenyl]-2-carboxylic acid], for which the EC50 runs as follows: under setting [1], less than 10 nM; under setting [2], less than 10 nM.

On to `CCC[C@@H](NC(=O)c1ccc(-c2cc(Cl)ccc2-c2nc3cc(C4CC4)ccc3[nH]2)c(C(=O)O)c1)c1ccccc1` [Example 15, 5′-chloro-2′-(5-cyclopropyl-1H-1,3-benzodiazol-2-yl)-4-{[(1R)-1-phenylbutyl]carbamoyl}-[1,1′-biphenyl]-2-carboxylic acid], for which the concentration giving a half-maximal response (EC50) runs as follows: under setting [1], less than 10 nM; under setting [2], less than 10 nM.

As to `CCC[C@@H](NC(=O)c1ccc(-c2cc(Cl)ccc2-c2nc3cc(CC(F)(F)F)ccc3[nH]2)c(C(=O)O)c1)c1ccccc1` [Example 16, 5′-chloro-4-{[(1R)-1-phenylbutyl]carbamoyl}-2′-[5-(2,2,2-trifluoroethyl)-1H-1,3-benzodiazol-2-yl]-[1,1′-biphenyl]-2-carboxylic acid], the EC50 under setting [1] is less than 10 nM and the half-maximal effective concentration (EC50) under setting [2] was less than 10 nM.

As to `CCC[C@@H](NC(=O)c1ccc(-c2cc(Cl)ccc2-c2nc3c(F)cccc3[nH]2)c(C(=O)O)c1)c1ccccc1` [Example 17, 5′-chloro-2′-(4-fluoro-1H-1,3-benzodiazol-2-yl)-4-{[(1R)-1-phenylbutyl]carbamoyl}-[1,1′-biphenyl]-2-carboxylic acid], the EC50 by setting is: under setting [1], less than 10 nM; under setting [2], less than 10 nM.

In the case of `CCC[C@@H](NC(=O)c1ccc(-c2cc(Cl)ccc2-c2nc3cc(C(F)(F)F)ccc3[nH]2)c(C(=O)O)c1)c1ccccc1` [Example 18, 5′-chloro-4-{[(1R)-1-phenylbutyl]carbamoyl}-2′-[5-(trifluoromethyl)-1H-1,3-benzodiazol-2-yl]-[1,1′-biphenyl]-2-carboxylic acid], the EC50 by setting is: under setting [1], less than 10 nM; under setting [2], less than 10 nM.

As to `CCC[C@@H](NC(=O)c1ccc(-c2cc(Cl)ccc2-c2nc3cc(C(C)(C)C)ccc3[nH]2)c(C(=O)O)c1)c1ccccc1` [Example 19, 2′-(5-tert-butyl-1H-1,3-benzodiazol-2-yl)-5′-chloro-4-{[(1R)-1-phenylbutyl]carbamoyl}-[1,1′-biphenyl]-2-carboxylic acid], the EC50 is less than 10 nM under setting [1] and less than 10 nM under setting [2].

In the case of `CCC[C@@H](NC(=O)c1ccc(-c2cc(Cl)ccc2-c2nc3c(O)cccc3[nH]2)c(C(=O)O)c1)c1ccccc1` [Example 20, 5′-chloro-2′-(4-hydroxy-1H-1,3-benzodiazol-2-yl)-4-{[(1R)-1-phenylbutyl]carbamoyl}-[1,1′-biphenyl]-2-carboxylic acid], the EC50 is, setting by setting: under setting [1], less than 10 nM; under setting [2], less than 10 nM.

For `CCC[C@@H](NC(=O)c1ccc(-c2cc(Cl)ccc2-c2nc3cc(C(=O)OC)ccc3[nH]2)c(C(=O)O)c1)c1ccccc1` [Example 21, 5′-chloro-2′-[5-(methoxycarbonyl)-1H-1,3-benzodiazol-2-yl]-4-{[(1R)-1-phenylbutyl]carbamoyl}-[1,1′-biphenyl]-2-carboxylic acid], the EC50 by setting is: under setting [1], less than 10 nM; under setting [2], less than 10 nM.
